Experimental data: a melting point compilation (Tetko et al.; mined from patent text by program, amines drawn as free bases though some values may be those of a salt)

| Compound | melting point [°C] |
| --- | --- |
| O=C(O)C1CCc2c(c3cccc(F)c3n2C(=O)c2ccccc2)C1 (stereo not drawn) | 250 to 251 |
| O=C(Nc1c[nH]nc1C(=O)NCCc1cccnc1)c1ccccn1 | 267 to 268 |
| O=C(O)Cc1ccc(CN2CCN(c3ccccc3C(=O)O)CC2)cc1 | 179 to 181 |
| C1=CC2(C3OCCO3)OC1c1ccccc12 (stereo not drawn) | 48 to 49 |
| O=C1NC(=O)C(c2ccccc2)(c2ccccc2)N2CCN(C(=O)OCc3ccccc3)CC12 (stereo not drawn) | 151 to 152 |
| CCCCCCc1sc(C(=O)O)c2c1-c1c(cnn1C)CC2 | 242 to 243 |
| CCCOc1ccc(-c2scc(-c3ccccc3Cl)c2CC(=O)NC(=N)n2cccn2)cc1 | 119 to 120 |
| CC(C)C(C(N)=O)N(C)C(=O)OC(C)(C)C (stereo not drawn) | 181 to 183 |
| CCCN1CC(c2ccc(S(C)(=O)=O)cc2)=C(c2ccc(F)cc2)C1=O | 120 to 121 |
| O=C(O)CCC(Cc1ccccc1Cl)(C(=O)C=Cc1cccc(Cl)c1)c1ccccc1 (stereo not drawn) | 170 to 172 |
| COc1ccc(N2CCN(c3c(C)c(C)c4c(c3C)C(CN3CCCCC3)C(C)(C)O4)CC2)cc1 (stereo not drawn) | 144 to 145 |
| O=[N+]([O-])c1ccc(Nc2nc(Cl)nc3nc[nH]c23)cc1 | > 270 |
| CCP(=O)(O)CC(=O)CN | 189 to 192 |
| CC(c1oc2ccccc2c(=O)c1-c1cccc(F)c1)n1nc(-c2cccc(OC(F)F)c2)c2c(N)ncnc21 (stereo not drawn) | 176 to 179 |
| Cn1cc(C(=O)NCc2ccc(Cl)cc2)c(=O)c2sc(C=O)c(COCC[Si](C)(C)C)c21 | 174 to 176 |
| O=C(O)CCc1c(Cl)cccc1-c1cccs1 | 83 to 86 |
| O=C1NC(=O)C(Nc2ccc(CCNCC(O)COc3cccc4ccccc34)cc2)S1 (stereo not drawn) | 61 to 62 |
| CSC(=C[N+](=O)[O-])N1CCCCC1 | 65 to 67 |
| COc1ccc(N(C(=O)CN2C(=O)C(Cc3n[nH]c4ccccc34)(OC)C(=O)N(c3cccnc3)c3ccccc32)C(C)C)cc1 (stereo not drawn) | 207 to 209 |
| CNC(=O)c1cccc(F)c1Nc1nc(Nc2ccc3c(c2)C(=O)NCCC3)ncc1Cl | 200 |

The next lines start with the values.

| melting point [°C] | Compound |
| --- | --- |
| 160 to 161 | COC(=O)c1ccccc1OCCOc1cccc2oc(-c3ccccc3)cc(=O)c12 |
| 32 to 34 | CCCCCCCCCCOc1ccc(OCc2ccccc2)c(C(=O)OC)c1 |
| 54 to 56 | CCC(OC(C)C)c1cc(C(=O)OC)c(N)cc1C(F)(F)F (stereo not drawn) |
| 108 to 112 | COc1cc(CCNc2ncnc3scnc23)ccc1Oc1c(F)cnc(C(F)(F)F)c1F |
| 205 to 207 | Cc1c(CC(=O)O)c2ccccc2n1-c1cc(Cl)nc(Cl)n1 |
| 155 to 156 | Cc1cc(Cl)ccc1NC(=N)Nc1ncccc1OCc1c(F)cccc1Cl |
| 245 to 246 | CC(=O)Nc1ccc2c(c1)cc(C(=O)O)n2Cc1ccc(Cl)c(Cl)c1 |
| 125 to 127 | CCCc1c(OCCCOc2ccc(NC(=O)C(=O)O)cc2OC)ccc(C(C)=O)c1O |
| 249 to 251 | COc1ccc(-n2c(=O)c(C(=O)C3=C(O)CCCC3=O)nc3c(Cl)cccc32)cc1 |
| 200 to 201 | CS(=O)c1cc(C(=O)O)c(Cl)cc1Cl (stereo not drawn) |
| 187 to 190 | CCc1ccc(NC(=O)c2sccc2S(=O)(=O)Nc2onc(C)c2Br)cc1 |
| 77 to 79 | COC(=O)c1ccc(OC)c(C(F)(F)F)c1 |
| 166 to 169 | COC(=O)c1cc(Cl)c(NC(C)=O)c([N+](=O)[O-])c1O |
| 234 to 235 | CNC(=O)c1ccc(N2CCN(Cc3cc4c(c(OC)c3)OCC(=O)N4)CC2)c(C)c1 |
| 126 to 128 | C[C@H](C#Cc1ccc(CCc2ccc(F)cc2)s1)N(O)C(N)=O |
| 96 | CCCc1c(O)c(Cl)cc(C(C)=O)c1O |
| 176 to 178 | COc1ccc(S(=O)(=O)c2ccccc2)cc1S(=O)(=O)NC1CCOCC1 |
| 168 | COc1ccc(CCNC(=O)CNc2cc(Cl)ccc2C(N)=O)cc1OC |
